In paper PMC4501059, “Responding to the challenge of untreatable gonorrhea: ETX0914, a first-in-class agent with a distinct mechanism-of-action against bacterial Type II topoisomerases” (Scientific Reports, 2015):
Values after ≈ are worked out from the molar mass of the structure shown. Read-outs that look alike come from different tables or passages of the source.

How the values were obtained:
[1] = test system: resistant isolates of S. aureus, S. pneumoniae and N. gonorrhoeae; type: cell-based
[2] = hepatocyte intrinsic clearance; type: in vitro ADME; settings: female, CD-1, mouse hepatocytes
Source text: Supplement srep11827-s1.doc, table 4 | column: CD-1 mouse (female)

[3] = hepatocyte intrinsic clearance; type: in vitro ADME; settings: male, Han-Wister, rat hepatocytes
Source text: (§1) Supplement srep11827-s1.doc, table 4 | column: Han-Wister rat (male)

[4] = Single dose pharmacokinetics, rat; type: in vivo; settings: Han-Wister rat (male)
Experimental: AZD0914 was analyzed in mouse, rat, dog, monkey plasma using a qualified method which was later validated for human plasma analysis. The validated human method is described below and is representative of the approach taken in other species. AZD0914 was determined in human plasma prepared with K2EDTA as an anticoagulant. AZD0914 and an internal standard (^13C2, ^15N2 AZD0914) were extracted from plasma with tert- butyl methyl ether. After evaporating to dryness under a stream of nitrogen, the residue was reconstituted and quantitated by reverse phase HPLC-MS/MS against a standard curve from 1.00 to 5000 ng/ml. Separation was achieved using a gradient which went from 55% to 85% methanol:acetonitrile (1:1) containing 0.2% formic acid as mobile phase B and 0.2% formic acid in water as mobile phase A at a flow rate of 0.60 ml/min through a Phenomonex Gemini C18 column (50 x 2.0 mm column, […]) heated using a Shimadzu CTO-20AC set to 40 °C. AZD0914 was detected in multiple reaction monitoring (MRM) mode by positive ion electrospray ionization using a Sciex API5500 (Toronto, Canada) mass spectrometer. The ion spray voltage was set to 5500 V and turboionspray temperature was 650 °C. AZD0914 was quantitated using the MRM transition 488.2 → 348.2 using a collision energy of 29 eV. The internal standard, (^13C2, ^15N2 AZD0914), was monitored using identical conditions except for the MRM transition of 492.2 → 348.2.

[5] = plasma protein binding, rat; type: in vitro ADME; settings: in vitro at 1-50 µM
Source text: as §1

[6] = plasma protein binding, dog; type: in vitro ADME; settings: in vitro at 1-50 µM
Source text: Supplement srep11827-s1.doc, table 4 | column: Beagle dog (male)

[7] = test system: USA100 NRS382; assay: MIC (modal, CLSI broth microdilution); type: cell-based, S. aureus; settings: Staphylococcus aureus, read-out: Modal MIC
[8] = test system: Streptococcus pyogenes; parameters: method as in ref 2 (supplement); settings: 1358 tested; ref 2 (supplement); cited from earlier work
[9] = test system: Chlamydia trachomatis; parameters: method as in ref 3 (supplement); settings: 10 tested; ref 3 (supplement); cited from earlier work
[10] = test system: Ureaplasma spp.; parameters: method as in ref 3 (supplement); settings: 21 tested; ref 3 (supplement); cited from earlier work
[11] = physchem
[12] = plasma protein binding, mouse; settings: in vitro at 1-50 µM
[13] = hepatocyte intrinsic clearance; settings: human, hepatocytes
[14] = CV dog telemetry (single dose, iv); settings: for Cmax: plasma

Question: Which “susceptibility of GyrB\ParE mutants with reduced novobiocin susceptibility” value ([1]; S. aureus ARC3445, S. pneumoniae ARC2800) does the source give for `C[C@@H]1CN2c3c(cc4c(N5C(=O)OC[C@@H]5C)noc4c3F)CC3(C(=O)NC(=O)NC3=O)[C@H]2[C@H](C)O1` [ETX0914] here?
Answer: Its value is “fully susceptible”.

Question: And the “cross-resistance of NBTI resistant S. aureus mutant ARC2796” value ([1]; derived from ARC516)?
Answer: The value was “not cross-resistant”.

Question: What about the hepatocyte CLint at 1 µM [2] of the same compound?
Answer: Its hepatocyte CLint at 1 µM is 7 µL/min/1e6 cells.

Question: And the hepatocyte CLint at 1 µM [3]?
Answer: Its hepatocyte CLint at 1 µM is 10 µL/min/1e6 cells.

Question: What about the Ka [4] of the same compound?
Answer: Its Ka is 1.6 h⁻¹.

Question: What about the clearance ([4]; plasma, IV 10 mg/kg, read-out: Clp (IV)) of the same compound?
Answer: Its clearance is 22 mL/min/kg.

Question: What about the half-life ([4]; plasma, IV 10 mg/kg, read-out: T1/2 (IV) (converted)) of the same compound?
Answer: Its half-life is 0.7 h.

Question: And the Vd ([4]; plasma, IV 10 mg/kg, read-out: Vss (IV))?
Answer: Its Vd is 1.2 L/kg.

Question: What about the bioavailability ([4]; plasma, IV 10 / PO 10 mg/kg) of the same compound?
Answer: Its bioavailability is 34%.

Question: And the Cmax ([4]; plasma, PO 10 mg/kg)?
Answer: Its Cmax is 1700 nM.

Question: What about the half-life ([4]; plasma, PO 10 mg/kg, read-out: T1/2 (PO) (converted)) of the same compound?
Answer: Its half-life is 1.8 h.

Question: What about the “PPB (%free)” value [5] of the same compound?
Answer: Its value is 19.1±1.1 %free.

Question: And the “PPB (%free)” value [6]?
Answer: The value was 18.4±0.3 %free.

Question: And the MIC [7]?
Answer: Its MIC is 0.125 µg/mL (≈ 0.256 µM).

Question: What about the MIC90 [8] of the same compound?
Answer: The MIC90 was 0.25^2 µg/ml.

Question: What about the “MIC Range” value [8] of the same compound?
Answer: The value was ≤ 0.015 to 0.5 µg/mL.

Question: And the MIC90 [9]?
Answer: The MIC90 was 0.25^3 µg/ml.

Question: What about the “MIC Range” value [9] of the same compound?
Answer: The value was 0.06 to 0.5 µg/mL.

Question: And the MIC90 [10]?
Answer: The MIC90 was 1.0^3 µg/ml.

Question: What about the “MIC Range” value [10] of the same compound?
Answer: Its value is 0.125 to 2 µg/mL.

Question: What about the solubility [11] of the same compound?
Answer: Its solubility is 390 µM (≈ 190 µg/mL).

Question: What about the “PPB (%free)” value [12] of the same compound?
Answer: The value was 22.1 %free.

Question: And the “PPB (%free)” value ([12]; listed as AZD0914)?
Answer: The value was 22.1±0.3 %free.

Question: And the hepatocyte CLint [13]?
Answer: Its hepatocyte CLint is 1 µL/min/1e6 cells.

Question: And the NOEL ([14]; CV dog telemetry, single dose, iv)?
Answer: The NOEL was 50 mg/kg/day.

Question: And the cardiovascular effects ([14]; IV telemetry dog study, 100 mg/kg)?
Answer: The cardiovascular effects was “decreases in blood pressure, contractility and PR interval and an increase in the heart rate”.

Question: And the “other ECG intervals” value ([14]; dog)?
Answer: Its value is “no changes to other ECG intervals including QTc or QRS”.

Question: What about the Cmax ([14]; dog, iv, 50 mg/kg) of the same compound?
Answer: The Cmax was 63 µg/mL.

Question: What about the Cmax ([14]; dog, iv, 100 mg/kg) of the same compound?
Answer: The Cmax was 160 µg/mL.

Question: And the “Salient Pathology Findings” value ([14]; single dose iv, 100 mg/kg)?
Answer: The value was “Emesis Increase in cardiac contractility\relaxation and heart rate Decrease in systolic & diastoloic blood pressure Orthostatic hypertension”.
